Legend:
Test in all cases: Broad selectivity panel, 32P incorporation
Type in all cases: biochemical
[1] = biological target: T1, Lyn (Homo sapiens, UniProt P07948); conditions: 40 μM ATP, read-out: Percent inhibition Lyn
T1 construct: purchased Upstate (Charlottesville, Va.)
Description: (§1) Various compounds of the present invention are screened against a panel of 24 additional kinases (Upstate, Charlottesville, Va.). Compounds are tested 0.1 μM and 1 μM in reactions containing 40 μM ATP. Incorporation of radiolabeled phosphate (^32P) into each kinase substrate is measured in the presence and absence of test compound. Results are reported as the percent decrease in the amount of ^32P incorporated into the substrate in the presence of compound, compared to buffer control.

[2] = biological target: T2, JNK1α1 (Homo sapiens, UniProt P45983); conditions: 40 μM ATP, read-out: Percent inhibition JNK1α1
T2 construct: purchased Upstate (Charlottesville, Va.)
T2 sequence (P45983 1-384 isoform P45983-2, species assumed): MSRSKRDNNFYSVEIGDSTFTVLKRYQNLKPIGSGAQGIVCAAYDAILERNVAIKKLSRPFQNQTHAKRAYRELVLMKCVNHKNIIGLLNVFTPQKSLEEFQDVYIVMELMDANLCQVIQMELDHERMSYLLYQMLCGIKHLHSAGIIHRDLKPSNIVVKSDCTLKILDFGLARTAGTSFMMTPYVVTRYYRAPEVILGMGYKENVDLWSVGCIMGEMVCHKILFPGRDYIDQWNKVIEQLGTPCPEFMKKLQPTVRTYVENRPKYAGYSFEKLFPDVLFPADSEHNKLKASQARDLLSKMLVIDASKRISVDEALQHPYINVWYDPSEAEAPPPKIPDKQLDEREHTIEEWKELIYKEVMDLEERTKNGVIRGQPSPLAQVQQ
Description: as §1

[3] = biological target: T3, MKK6 (Homo sapiens, UniProt P52564); conditions: 40 μM ATP, read-out: Percent inhibition MKK6
T3 construct: purchased Upstate (Charlottesville, Va.)
T3 sequence (P52564 1-334): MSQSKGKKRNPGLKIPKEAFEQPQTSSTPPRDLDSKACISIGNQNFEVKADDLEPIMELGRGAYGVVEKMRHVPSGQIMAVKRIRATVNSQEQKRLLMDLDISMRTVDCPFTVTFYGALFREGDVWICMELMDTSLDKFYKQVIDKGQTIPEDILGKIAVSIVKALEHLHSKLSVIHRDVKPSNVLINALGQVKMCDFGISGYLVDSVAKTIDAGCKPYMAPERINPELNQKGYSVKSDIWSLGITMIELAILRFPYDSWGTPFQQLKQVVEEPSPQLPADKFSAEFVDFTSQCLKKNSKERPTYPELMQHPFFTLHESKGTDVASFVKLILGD
Description: as §1

[4] = biological target: T4, PKBβ (Homo sapiens, UniProt P31751); conditions: 40 μM ATP, read-out: Percent inhibition PKBβ
T4 construct: purchased Upstate (Charlottesville, Va.)
T4 sequence (P31751 whole entry, species assumed): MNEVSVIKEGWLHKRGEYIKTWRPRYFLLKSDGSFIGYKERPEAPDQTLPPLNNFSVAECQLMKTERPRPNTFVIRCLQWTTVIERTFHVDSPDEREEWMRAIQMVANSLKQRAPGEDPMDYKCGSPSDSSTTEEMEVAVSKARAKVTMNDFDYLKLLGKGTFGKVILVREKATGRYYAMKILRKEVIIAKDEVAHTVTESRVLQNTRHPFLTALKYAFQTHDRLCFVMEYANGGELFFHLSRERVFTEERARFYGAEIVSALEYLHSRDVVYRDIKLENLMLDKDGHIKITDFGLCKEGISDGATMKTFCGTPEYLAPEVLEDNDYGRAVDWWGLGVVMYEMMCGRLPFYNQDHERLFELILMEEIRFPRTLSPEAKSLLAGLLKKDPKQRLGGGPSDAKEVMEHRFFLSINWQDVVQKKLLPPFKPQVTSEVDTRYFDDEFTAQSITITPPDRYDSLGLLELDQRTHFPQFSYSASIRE
Description: as §1

[5] = biological target: T5, SAPK4 (Homo sapiens, UniProt O15264); conditions: 40 μM ATP, read-out: Percent inhibition SAPK4
T5 construct: purchased Upstate (Charlottesville, Va.)
T5 sequence (O15264 1-365): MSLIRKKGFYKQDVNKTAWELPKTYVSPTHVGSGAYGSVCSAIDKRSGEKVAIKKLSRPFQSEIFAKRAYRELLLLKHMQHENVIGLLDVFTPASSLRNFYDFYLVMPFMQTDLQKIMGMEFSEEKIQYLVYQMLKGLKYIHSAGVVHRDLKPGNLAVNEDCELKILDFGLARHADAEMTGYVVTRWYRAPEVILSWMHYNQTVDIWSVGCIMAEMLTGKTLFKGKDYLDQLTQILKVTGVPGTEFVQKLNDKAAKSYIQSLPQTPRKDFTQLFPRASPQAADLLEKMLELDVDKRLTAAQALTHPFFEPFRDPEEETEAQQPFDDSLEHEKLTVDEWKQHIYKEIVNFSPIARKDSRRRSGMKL
Description: as §1

[6] = biological target: T6, PKA (Homo sapiens, UniProt P17612); conditions: 40 μM ATP, read-out: Percent inhibition PKA
T6 construct: purchased Upstate (Charlottesville, Va.)
Description: as §1

[7] = system: p70S6K; conditions: 40 μM ATP
Description: as §1

[8] = biological target: T7, FGFR3 (Homo sapiens, UniProt P22607); conditions: 40 μM ATP, read-out: Percent inhibition FGFR3
T7 construct: purchased Upstate (Charlottesville, Va.)
T7 sequence (P22607 23-806, species assumed): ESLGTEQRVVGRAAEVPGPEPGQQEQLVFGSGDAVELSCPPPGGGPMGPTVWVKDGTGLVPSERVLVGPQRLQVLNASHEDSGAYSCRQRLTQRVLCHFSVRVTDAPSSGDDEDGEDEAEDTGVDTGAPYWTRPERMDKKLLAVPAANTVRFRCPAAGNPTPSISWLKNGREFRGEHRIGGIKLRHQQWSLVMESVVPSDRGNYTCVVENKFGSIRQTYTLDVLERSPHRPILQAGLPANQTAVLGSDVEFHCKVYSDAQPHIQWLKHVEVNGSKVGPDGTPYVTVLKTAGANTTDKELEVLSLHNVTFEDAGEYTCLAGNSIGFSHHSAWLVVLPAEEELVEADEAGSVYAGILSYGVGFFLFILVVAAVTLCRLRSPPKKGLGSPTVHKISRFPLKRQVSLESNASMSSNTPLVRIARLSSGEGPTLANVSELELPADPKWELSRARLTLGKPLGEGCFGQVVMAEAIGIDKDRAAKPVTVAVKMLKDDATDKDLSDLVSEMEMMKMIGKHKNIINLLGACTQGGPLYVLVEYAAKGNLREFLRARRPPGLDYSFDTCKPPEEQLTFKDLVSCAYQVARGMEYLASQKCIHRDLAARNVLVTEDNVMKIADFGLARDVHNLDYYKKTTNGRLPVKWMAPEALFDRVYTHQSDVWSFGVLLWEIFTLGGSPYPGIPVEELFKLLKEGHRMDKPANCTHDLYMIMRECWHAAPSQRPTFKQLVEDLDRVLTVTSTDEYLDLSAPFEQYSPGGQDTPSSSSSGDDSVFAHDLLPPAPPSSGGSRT
Description: as §1

[9] = system: ROCK-II; conditions: 40 μM ATP
Description: as §1

[10] = biological target: T8, CaMKIV (Homo sapiens, UniProt Q16566); conditions: 40 μM ATP, read-out: Percent inhibition CaMKIV
T8 construct: purchased Upstate (Charlottesville, Va.)
T8 sequence (Q16566 1-473): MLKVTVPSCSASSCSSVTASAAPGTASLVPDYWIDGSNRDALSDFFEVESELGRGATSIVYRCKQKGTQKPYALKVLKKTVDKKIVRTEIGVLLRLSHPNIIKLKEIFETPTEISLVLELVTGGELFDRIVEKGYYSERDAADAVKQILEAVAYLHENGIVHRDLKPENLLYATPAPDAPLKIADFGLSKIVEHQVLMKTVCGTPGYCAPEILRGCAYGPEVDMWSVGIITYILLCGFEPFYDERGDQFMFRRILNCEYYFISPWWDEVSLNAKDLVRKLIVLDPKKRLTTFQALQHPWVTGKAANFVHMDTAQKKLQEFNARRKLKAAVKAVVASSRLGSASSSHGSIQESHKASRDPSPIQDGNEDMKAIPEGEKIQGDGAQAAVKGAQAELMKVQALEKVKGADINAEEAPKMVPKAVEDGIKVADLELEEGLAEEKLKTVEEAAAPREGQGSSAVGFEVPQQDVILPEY
Description: as §1

[11] = biological target: T9, GSK3β (Homo sapiens, UniProt P49841); conditions: 40 μM ATP, read-out: Percent inhibition GSK3β
T9 construct: purchased Upstate (Charlottesville, Va.)
T9 sequence (P49841 whole entry, species assumed): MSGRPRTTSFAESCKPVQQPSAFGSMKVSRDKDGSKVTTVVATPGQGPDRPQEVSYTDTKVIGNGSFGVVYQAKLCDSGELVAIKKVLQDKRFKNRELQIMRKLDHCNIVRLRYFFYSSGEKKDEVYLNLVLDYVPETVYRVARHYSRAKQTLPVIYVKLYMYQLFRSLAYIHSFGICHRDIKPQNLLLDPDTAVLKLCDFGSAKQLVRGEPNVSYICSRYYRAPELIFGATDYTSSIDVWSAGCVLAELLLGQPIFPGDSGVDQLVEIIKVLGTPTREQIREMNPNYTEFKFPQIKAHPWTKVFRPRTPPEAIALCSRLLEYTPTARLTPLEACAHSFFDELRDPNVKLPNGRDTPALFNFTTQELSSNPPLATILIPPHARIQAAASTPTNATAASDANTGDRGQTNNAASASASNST
Description: as §1

[12] = biological target: T10, PKB α (Homo sapiens, UniProt P31749); conditions: 40 μM ATP, read-out: Percent inhibition PKB α
T10 construct: purchased Upstate (Charlottesville, Va.)
T10 sequence (P31749 whole entry, species assumed): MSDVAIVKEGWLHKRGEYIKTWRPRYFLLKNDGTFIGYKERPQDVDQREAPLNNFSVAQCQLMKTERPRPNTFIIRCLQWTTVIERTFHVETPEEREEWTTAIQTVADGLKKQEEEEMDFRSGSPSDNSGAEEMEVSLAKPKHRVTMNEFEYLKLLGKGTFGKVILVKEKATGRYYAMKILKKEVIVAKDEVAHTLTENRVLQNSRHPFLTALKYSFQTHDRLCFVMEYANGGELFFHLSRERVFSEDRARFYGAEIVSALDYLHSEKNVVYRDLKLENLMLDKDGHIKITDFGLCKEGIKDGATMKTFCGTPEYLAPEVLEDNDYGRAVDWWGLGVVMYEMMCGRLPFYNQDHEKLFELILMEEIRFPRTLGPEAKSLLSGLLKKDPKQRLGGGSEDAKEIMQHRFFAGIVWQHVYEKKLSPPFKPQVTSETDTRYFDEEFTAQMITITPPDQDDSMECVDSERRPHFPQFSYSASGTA
Description: as §1

[13] = biological target: T11, c-RAF (Homo sapiens, UniProt P04049); conditions: 40 μM ATP, read-out: Percent inhibition c-RAF
T11 construct: purchased Upstate (Charlottesville, Va.)
T11 sequence (P04049 whole entry, species assumed): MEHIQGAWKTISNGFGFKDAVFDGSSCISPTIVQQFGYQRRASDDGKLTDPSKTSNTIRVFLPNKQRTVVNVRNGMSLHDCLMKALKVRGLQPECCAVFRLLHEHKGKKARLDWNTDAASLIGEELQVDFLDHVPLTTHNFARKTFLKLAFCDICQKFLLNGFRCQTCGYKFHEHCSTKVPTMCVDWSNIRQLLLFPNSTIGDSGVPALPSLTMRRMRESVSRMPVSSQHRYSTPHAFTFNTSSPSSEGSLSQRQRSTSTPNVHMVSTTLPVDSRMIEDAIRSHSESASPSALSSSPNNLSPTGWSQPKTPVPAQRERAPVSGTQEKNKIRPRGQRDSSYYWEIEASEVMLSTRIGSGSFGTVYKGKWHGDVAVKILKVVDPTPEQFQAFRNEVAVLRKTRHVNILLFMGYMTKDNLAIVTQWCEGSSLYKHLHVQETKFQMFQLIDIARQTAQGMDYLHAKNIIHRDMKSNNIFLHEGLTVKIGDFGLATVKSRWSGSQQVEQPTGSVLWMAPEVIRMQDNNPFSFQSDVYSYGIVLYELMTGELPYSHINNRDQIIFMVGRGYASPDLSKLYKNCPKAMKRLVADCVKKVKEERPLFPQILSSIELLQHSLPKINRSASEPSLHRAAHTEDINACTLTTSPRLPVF
Description: as §1

T1 sequence (P07948 whole entry, species assumed): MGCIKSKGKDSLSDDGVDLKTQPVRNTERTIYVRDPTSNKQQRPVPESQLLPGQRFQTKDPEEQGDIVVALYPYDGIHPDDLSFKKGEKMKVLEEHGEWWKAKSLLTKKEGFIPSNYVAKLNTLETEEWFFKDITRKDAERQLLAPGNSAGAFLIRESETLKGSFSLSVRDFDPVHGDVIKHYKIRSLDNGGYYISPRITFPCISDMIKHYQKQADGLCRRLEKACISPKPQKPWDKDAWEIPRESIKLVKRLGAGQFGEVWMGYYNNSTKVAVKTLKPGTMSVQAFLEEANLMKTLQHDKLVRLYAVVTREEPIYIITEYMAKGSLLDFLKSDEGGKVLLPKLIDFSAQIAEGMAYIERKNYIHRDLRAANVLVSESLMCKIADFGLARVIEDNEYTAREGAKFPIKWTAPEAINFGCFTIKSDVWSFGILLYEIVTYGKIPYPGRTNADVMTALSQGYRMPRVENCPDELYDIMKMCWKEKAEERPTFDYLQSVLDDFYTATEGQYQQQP

## Fc1ccc(-c2nc3occn3c2-c2ccnc(N[C@H]3CN4CCC3CC4)n2)cc1 [LXXXVII]
[1]; 0.1 μM compound
  inhibition at 0.1 µM: -32%
[1]; 1 μM compound
  inhibition at 1 µM: -13%
[2]; 0.1 μM compound
  inhibition at 0.1 µM: -25%
[2]; 1 μM compound
  inhibition at 1 µM: 0%
[3]; 0.1 μM compound
  inhibition at 0.1 µM: -4%
[3]; 1 μM compound
  inhibition at 1 µM: 54%
[4]; 0.1 μM compound
  inhibition at 0.1 µM: -26%
[4]; 1 μM compound
  inhibition at 1 µM: -29%
[5]; 0.1 μM compound
  inhibition at 0.1 µM: -3%
[5]; 1 μM compound
  inhibition at 1 µM: -1%
[6]; 0.1 μM compound
  inhibition at 0.1 µM: -10%
[6]; 1 μM compound
  inhibition at 1 µM: -6%
[7]; 0.1 μM compound
  Percent inhibition p70S6K: −4
[7]; 1 μM compound
  Percent inhibition p70S6K: −1
[8]; 0.1 μM compound
  inhibition at 0.1 µM: -23%
[8]; 1 μM compound
  inhibition at 1 µM: -21%
[9]; 0.1 μM compound
  Percent inhibition ROCK-II: 2
[9]; 1 μM compound
  Percent inhibition ROCK-II: 8
[10]; 0.1 μM compound
  inhibition at 0.1 µM: -12%
[10]; 1 μM compound
  inhibition at 1 µM: 10%
[11]; 0.1 μM compound
  inhibition at 0.1 µM: 6%
[11]; 1 μM compound
  inhibition at 1 µM: 8%
[12]; 0.1 μM compound
  inhibition at 0.1 µM: -2%
[12]; 1 μM compound
  inhibition at 1 µM: 5%
[13]; 0.1 μM compound
  inhibition at 0.1 µM: 15%
[13]; 1 μM compound
  inhibition at 1 µM: 58%

From patent US20070270418A1, “Inhibitors of P38 and Methods of Using the Same” (priority 2003, published 2007)
